# According to ChEMBL document CHEMBL1201862, “PubChem BioAssay data set” (2004):
# Activity calls are given as the source filed them.
# How the values were obtained:
# [1] = target: Mitogen-activated protein kinase kinase kinase kinase 4 (Homo sapiens, UniProt O95819); format: functional
# [2] = target: Tyrosine-protein kinase SYK (Homo sapiens, UniProt P43405); format: functional
# [3] = target: Tyrosine-protein kinase JAK2 (Homo sapiens, UniProt O60674); format: functional;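 also: JAK2 tested as one member of a kinase panel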
# Sequence of Tyrosine-protein kinase JAK2 (O60674 whole entry): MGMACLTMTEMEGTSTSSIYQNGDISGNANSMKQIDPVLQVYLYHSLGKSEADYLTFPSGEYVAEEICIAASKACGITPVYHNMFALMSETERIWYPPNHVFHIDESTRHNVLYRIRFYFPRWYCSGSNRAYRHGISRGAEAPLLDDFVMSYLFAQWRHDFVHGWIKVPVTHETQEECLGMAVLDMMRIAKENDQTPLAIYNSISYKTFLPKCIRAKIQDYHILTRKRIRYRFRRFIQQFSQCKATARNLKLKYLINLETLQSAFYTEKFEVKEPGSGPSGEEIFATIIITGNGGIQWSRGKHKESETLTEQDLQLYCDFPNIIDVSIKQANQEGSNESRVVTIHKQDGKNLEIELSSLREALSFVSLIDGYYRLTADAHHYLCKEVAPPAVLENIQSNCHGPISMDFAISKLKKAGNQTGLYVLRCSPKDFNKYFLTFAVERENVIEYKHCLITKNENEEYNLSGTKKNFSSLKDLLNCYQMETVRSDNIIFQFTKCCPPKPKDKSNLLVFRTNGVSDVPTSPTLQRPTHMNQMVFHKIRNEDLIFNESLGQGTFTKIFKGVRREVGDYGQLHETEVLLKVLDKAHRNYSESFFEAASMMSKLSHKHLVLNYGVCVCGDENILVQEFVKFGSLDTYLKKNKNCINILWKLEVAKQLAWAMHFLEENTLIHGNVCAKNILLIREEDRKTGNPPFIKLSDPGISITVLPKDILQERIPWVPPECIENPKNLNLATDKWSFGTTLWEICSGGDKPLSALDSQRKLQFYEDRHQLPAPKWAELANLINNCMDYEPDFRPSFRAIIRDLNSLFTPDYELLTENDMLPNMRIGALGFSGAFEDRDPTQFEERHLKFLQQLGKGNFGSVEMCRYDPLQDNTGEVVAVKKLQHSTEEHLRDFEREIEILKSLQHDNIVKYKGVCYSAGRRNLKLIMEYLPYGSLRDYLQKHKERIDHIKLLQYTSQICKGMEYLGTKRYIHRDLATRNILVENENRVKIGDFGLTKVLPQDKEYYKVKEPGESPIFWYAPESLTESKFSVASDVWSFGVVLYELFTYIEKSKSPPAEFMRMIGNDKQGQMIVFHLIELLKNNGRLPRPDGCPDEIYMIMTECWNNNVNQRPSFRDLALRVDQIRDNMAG
# [4] = target: Glycogen synthase kinase-3 beta (Homo sapiens, UniProt P49841); format: functional;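 also: value comes from a broad kinome profiling panel, with GSK3B as the panel member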
# Sequence of Glycogen synthase kinase-3 beta (P49841 whole entry): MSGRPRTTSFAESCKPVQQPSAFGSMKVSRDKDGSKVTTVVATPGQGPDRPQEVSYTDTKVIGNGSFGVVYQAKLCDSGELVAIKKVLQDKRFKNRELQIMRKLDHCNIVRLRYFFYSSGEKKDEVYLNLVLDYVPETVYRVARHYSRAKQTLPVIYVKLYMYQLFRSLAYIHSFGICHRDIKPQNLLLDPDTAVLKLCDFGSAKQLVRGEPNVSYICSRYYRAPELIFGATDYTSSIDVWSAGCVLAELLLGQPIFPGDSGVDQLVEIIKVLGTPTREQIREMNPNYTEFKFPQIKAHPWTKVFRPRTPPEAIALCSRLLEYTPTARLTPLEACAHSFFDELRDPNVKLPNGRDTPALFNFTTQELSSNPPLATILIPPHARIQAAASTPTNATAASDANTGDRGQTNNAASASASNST
# Aurora kinase A = Aurora kinase A (Homo sapiens, UniProt O14965); format: functional;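 also: value from the Navigating the Kinome kinase panel profiling, panel entry STK6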
# [5] = A cytotoxicity screen of small molecule inhibitors of the PhoP region in Salmonella typhi identified in the primary screen. [Related pubchem assays: 1850, 1864, 1985 ]; format: functional
# Apelin receptor = Apelin receptor (Homo sapiens, UniProt P35414); assay: APJ beta-arrestin recruitment antagonism, SAR follow-up, selectivity assay for CCR6 antagonist project, cell-based, luminescent, enzyme-fragment complementation (AID 588359); format: functional
# [6] = target: T1, C-C chemokine receptor type 6 (Homo sapiens, UniProt P51684); assay: CCR6 receptor antagonists, SAR follow-up, cell-based, luminescent beta-arrestin readout (AID 540334); format: functional
# T1 sequence (P51684 whole entry): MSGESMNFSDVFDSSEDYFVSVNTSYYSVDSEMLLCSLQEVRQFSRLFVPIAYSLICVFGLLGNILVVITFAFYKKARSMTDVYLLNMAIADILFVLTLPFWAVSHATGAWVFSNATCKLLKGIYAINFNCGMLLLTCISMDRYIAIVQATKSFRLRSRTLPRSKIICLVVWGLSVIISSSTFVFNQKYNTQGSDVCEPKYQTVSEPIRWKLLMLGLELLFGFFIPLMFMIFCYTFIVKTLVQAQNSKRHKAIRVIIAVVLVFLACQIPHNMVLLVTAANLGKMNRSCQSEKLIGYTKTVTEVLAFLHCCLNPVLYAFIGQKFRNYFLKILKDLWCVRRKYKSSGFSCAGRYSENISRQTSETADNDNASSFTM
# [7] = target: C-X-C chemokine receptor type 5 (Homo sapiens, UniProt P32302); assay: CXCR5 receptor antagonists, SAR follow-up, selectivity assay for CCR6 antagonist project, cell-based, beta-arrestin, luminescence, CHO-K1 PathHunter (AID 540340); format: functional
# Sequence of C-X-C chemokine receptor type 5 (P32302 whole entry): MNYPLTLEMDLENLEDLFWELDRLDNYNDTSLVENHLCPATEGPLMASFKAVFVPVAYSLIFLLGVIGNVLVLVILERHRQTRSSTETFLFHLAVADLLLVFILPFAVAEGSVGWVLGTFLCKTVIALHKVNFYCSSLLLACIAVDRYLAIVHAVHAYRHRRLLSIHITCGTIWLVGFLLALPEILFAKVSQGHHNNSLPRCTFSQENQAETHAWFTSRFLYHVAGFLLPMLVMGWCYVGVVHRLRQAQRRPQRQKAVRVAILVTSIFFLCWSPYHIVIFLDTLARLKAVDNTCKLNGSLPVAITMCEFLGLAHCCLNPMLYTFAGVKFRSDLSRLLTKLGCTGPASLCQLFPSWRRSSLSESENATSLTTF
# [8] = target: T2, Sentrin-specific protease 7 (Homo sapiens, UniProt Q9BQF6); assay: SENP7 protease inhibitors, SAR follow-up, biochemical, luminescence (AID 504497); format: functional
# T2 sequence (Q9BQF6 whole entry): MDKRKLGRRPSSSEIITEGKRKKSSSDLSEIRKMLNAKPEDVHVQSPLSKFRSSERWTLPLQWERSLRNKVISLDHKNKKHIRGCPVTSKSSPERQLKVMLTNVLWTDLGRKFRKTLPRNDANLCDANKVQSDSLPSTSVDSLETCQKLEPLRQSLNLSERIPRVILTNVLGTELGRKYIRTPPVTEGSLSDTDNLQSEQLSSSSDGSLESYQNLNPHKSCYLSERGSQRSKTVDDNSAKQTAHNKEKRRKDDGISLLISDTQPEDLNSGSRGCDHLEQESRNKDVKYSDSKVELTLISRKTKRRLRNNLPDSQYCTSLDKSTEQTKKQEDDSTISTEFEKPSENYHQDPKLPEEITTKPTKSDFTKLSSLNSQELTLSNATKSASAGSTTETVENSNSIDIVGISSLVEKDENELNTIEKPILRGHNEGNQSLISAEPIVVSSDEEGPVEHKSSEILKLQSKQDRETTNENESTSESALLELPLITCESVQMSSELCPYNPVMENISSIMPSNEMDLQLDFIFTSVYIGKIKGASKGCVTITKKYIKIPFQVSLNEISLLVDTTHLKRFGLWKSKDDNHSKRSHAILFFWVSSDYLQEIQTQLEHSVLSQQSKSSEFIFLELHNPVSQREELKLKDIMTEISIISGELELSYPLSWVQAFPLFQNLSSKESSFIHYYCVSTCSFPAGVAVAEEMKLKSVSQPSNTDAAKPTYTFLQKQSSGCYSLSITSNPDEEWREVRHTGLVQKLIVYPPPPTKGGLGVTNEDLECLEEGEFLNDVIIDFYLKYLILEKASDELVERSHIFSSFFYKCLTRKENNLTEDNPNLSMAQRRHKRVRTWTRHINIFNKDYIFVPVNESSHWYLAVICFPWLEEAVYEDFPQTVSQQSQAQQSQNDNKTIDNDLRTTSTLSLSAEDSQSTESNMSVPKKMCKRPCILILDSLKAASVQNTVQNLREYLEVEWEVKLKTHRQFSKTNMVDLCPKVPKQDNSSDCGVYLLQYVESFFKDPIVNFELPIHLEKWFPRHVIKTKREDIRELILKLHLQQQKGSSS
# [9] = target: T3, Sentrin-specific protease 8 (Homo sapiens, UniProt Q96LD8); assay: SENP8 protease inhibitors, SAR follow-up, biochemical, luminescence (AID 504501); format: functional
# T3 sequence (Q96LD8 whole entry): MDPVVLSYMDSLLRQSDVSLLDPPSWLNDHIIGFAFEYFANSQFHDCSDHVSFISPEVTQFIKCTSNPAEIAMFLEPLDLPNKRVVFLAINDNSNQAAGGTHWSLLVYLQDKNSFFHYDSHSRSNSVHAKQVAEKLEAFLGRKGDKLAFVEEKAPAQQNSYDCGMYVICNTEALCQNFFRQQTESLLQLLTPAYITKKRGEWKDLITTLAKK
# Caspase-3 [10] = target: T4, Caspase-3 (Homo sapiens, UniProt P42574); assay: SAR Analysis of small molecule inhibitors of Sentrin-specific proteases (SENPs) using a Caspase-3 Selectivity assay. [Related pubchem assays (depositor defined):AID2540, AID2599, AID434973, AID489001]; format: functional
# T4 sequence (P42574 whole entry): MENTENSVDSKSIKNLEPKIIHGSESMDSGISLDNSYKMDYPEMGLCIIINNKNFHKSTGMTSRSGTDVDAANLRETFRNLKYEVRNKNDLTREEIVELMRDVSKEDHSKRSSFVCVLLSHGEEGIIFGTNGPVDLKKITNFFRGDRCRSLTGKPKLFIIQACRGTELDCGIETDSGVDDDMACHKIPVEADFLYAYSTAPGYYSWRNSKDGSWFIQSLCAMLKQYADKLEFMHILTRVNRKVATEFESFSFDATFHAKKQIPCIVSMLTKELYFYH
# [11] = target: T5, Sentrin-specific protease 6 (Homo sapiens, UniProt Q9GZR1); assay: SAR Analysis of small molecule inhibitors of Sentrin-specific protease 6 (SENP6) using a Luminescent assay. [Related pubchem assays (depositor defined):AID2582, AID2599]; format: functional
# T5 sequence (Q9GZR1 whole entry): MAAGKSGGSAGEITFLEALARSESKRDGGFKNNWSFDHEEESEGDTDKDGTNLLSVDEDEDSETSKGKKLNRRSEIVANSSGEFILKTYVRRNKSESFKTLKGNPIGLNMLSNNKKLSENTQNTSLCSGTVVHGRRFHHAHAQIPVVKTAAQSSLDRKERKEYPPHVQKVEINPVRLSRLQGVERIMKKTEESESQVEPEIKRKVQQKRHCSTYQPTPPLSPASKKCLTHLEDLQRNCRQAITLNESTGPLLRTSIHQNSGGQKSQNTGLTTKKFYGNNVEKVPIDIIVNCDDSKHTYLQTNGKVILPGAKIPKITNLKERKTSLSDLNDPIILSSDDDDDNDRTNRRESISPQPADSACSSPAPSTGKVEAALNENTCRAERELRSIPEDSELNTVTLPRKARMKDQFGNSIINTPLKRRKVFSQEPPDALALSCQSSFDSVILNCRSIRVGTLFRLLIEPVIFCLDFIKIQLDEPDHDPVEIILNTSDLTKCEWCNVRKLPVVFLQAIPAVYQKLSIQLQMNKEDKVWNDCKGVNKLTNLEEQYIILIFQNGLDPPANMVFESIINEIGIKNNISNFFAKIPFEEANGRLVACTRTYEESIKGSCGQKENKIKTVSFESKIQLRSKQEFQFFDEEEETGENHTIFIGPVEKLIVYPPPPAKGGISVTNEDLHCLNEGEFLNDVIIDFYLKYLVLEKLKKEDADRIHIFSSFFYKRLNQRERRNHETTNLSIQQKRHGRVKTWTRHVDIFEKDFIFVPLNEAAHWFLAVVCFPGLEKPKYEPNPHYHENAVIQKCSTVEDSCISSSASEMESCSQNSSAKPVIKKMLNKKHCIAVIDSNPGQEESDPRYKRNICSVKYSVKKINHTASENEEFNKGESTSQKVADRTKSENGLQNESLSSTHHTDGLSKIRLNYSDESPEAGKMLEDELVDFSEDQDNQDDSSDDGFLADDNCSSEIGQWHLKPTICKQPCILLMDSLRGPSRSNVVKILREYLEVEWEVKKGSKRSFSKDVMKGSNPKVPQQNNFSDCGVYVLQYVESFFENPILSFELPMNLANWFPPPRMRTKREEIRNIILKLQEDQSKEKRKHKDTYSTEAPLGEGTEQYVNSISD
# Candida albicans [12] = assay: growth inhibition of azole-resistant C. albicans, dose response, CaCi-8 strain, Alamar Blue, dry powder, set 3 (AID 488905); format: functional, organism-based
# Candida albicans [13] = assay: reversal of fluconazole resistance in C. albicans, dose response, CaCi-2 strain, Alamar Blue, dry powder, set 3 (AID 488907); format: functional, organism-based
# [14] = target: ALK tyrosine kinase receptor (Homo sapiens, UniProt Q9UM73); format: functional;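 also: ALK tested as one member of a kinase panel screen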
# Sequence of ALK tyrosine kinase receptor (Q9UM73 whole entry): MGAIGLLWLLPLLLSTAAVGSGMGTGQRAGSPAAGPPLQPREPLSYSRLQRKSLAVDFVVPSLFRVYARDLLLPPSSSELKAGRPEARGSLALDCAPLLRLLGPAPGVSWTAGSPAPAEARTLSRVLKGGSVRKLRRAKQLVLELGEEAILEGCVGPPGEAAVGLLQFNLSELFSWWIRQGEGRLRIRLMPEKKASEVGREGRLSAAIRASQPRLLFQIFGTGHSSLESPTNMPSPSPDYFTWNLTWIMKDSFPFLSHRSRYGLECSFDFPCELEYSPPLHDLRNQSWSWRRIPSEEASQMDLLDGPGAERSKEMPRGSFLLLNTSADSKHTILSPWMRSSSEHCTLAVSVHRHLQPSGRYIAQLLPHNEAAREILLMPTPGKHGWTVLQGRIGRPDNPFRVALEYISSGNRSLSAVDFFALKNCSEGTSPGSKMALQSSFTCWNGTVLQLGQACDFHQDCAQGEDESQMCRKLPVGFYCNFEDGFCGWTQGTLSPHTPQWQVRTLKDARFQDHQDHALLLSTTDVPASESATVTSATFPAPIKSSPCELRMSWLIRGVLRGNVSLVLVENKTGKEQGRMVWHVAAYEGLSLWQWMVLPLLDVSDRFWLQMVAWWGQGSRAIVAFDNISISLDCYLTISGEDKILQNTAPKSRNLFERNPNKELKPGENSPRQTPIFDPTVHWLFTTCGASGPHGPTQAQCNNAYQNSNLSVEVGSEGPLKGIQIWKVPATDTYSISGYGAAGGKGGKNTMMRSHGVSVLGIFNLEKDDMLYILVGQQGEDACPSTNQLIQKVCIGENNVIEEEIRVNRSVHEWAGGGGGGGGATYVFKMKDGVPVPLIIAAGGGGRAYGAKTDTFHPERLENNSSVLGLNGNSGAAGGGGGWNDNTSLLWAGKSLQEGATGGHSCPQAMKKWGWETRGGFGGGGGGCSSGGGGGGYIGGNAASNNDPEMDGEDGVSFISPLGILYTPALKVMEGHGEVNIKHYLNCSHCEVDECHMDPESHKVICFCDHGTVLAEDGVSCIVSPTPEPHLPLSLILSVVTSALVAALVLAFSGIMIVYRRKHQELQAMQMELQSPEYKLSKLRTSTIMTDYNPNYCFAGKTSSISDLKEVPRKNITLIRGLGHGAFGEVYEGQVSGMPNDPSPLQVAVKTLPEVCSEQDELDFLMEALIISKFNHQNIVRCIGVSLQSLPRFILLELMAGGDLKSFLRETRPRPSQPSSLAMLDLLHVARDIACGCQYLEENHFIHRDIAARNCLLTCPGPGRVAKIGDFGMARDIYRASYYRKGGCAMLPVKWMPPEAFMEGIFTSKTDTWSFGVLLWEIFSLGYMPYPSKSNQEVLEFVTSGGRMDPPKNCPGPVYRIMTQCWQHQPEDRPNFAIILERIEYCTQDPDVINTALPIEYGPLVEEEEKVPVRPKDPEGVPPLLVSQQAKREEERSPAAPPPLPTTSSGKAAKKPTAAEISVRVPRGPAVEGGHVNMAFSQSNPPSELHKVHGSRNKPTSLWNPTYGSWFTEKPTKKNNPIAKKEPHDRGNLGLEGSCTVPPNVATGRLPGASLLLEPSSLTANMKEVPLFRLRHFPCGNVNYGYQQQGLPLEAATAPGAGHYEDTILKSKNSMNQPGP
# [15] = target: Cyclin-dependent kinase 19 (Homo sapiens, UniProt Q9BWU1); assay: Navigating the Kinome. Panel member name: CDC2L6; format: functional
# [16] = target: Rho-associated protein kinase 1 (Homo sapiens, UniProt Q13464); format: functional;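 also: measured within a broad kinome-wide panel profiling many kinases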
# [17] = target: Serine/threonine-protein kinase D2 (Homo sapiens, UniProt Q9BZL6); format: functional;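 also: measured against PRKD2 as one member of a kinome-wide kinase profiling panel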
# [18] = target: Serine/threonine-protein kinase D3 (Homo sapiens, UniProt O94806); format: functional;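 also: determined within a kinase panel screen, with PRKCN as the panel member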
# [19] = target: Dual specificity tyrosine-phosphorylation-regulated kinase 1B (Homo sapiens, UniProt Q9Y463); assay: Navigating the Kinome. Panel member name: DYRK1B; format: functional
# Sequence of Dual specificity tyrosine-phosphorylation-regulated kinase 1B (Q9Y463 whole entry): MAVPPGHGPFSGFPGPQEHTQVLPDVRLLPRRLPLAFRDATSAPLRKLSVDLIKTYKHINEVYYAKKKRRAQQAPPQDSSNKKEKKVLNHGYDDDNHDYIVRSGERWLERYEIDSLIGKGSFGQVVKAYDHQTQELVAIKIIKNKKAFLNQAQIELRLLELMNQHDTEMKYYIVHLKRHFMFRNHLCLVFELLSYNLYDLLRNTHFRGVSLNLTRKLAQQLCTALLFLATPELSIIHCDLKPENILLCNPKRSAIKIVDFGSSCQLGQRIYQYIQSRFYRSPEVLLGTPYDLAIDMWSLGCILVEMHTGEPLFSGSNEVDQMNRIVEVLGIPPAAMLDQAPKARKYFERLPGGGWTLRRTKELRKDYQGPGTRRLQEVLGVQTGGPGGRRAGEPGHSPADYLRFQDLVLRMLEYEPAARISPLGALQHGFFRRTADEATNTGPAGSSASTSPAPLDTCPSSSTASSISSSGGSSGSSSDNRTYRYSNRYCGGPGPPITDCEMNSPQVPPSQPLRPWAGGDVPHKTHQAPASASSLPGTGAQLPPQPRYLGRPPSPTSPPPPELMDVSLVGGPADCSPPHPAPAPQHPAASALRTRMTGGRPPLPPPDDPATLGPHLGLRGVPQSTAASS
# [20] = target: High affinity nerve growth factor receptor (Homo sapiens, UniProt P04629); format: functional;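 also: NTRK1 tested as one member of a kinome-wide profiling panel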
# Sequence of High affinity nerve growth factor receptor (P04629 whole entry): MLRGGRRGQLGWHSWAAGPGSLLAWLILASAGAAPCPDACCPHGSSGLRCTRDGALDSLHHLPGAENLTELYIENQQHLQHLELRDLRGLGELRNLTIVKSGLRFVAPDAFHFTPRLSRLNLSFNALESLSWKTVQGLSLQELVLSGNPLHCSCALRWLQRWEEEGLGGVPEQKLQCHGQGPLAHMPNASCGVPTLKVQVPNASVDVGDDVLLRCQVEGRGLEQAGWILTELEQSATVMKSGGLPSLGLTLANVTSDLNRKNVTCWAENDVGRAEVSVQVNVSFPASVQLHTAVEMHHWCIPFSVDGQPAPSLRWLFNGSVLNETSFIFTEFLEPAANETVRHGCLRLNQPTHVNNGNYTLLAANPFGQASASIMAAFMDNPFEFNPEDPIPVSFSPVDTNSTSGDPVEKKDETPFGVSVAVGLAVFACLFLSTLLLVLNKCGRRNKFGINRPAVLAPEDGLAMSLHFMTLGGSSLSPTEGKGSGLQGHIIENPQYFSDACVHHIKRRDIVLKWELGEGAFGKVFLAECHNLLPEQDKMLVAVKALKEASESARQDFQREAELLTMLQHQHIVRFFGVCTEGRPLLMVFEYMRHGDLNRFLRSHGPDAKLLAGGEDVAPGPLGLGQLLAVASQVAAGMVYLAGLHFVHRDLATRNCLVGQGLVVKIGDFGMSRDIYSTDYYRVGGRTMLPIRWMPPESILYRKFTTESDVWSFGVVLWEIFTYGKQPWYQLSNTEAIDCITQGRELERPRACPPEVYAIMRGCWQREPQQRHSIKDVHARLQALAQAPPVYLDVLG
# [21] = target: Platelet-derived growth factor receptor alpha (Homo sapiens, UniProt P16234); assay: Navigating the Kinome. Panel member name: PDGFRA; format: functional
# [22] = target: Tyrosine-protein kinase FRK (Homo sapiens, UniProt P42685); format: functional;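 also: FRK tested as one member of a kinome panel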
# [23] = target: Mitogen-activated protein kinase 13 (Homo sapiens, UniProt O15264); format: functional
# [24] = target: Leukocyte tyrosine kinase receptor (Homo sapiens, UniProt P29376); assay: Navigating the Kinome. Panel member name: LTK; format: functional
# Activin receptor type-1 = Activin receptor type-1 (Homo sapiens, UniProt Q04771); assay: Navigating the Kinome. Panel member name: ACVR1; format: functional
# [25] = target: Leucine-rich repeat serine/threonine-protein kinase 2 (Homo sapiens, UniProt Q5S007); format: functional;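 also: value from a broad kinome-wide panel profiling study in which LRRK2 was one of the kinases tested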
# [26] = target: T5, Sentrin-specific protease 6; assay: SENP6 protease inhibitors, SAR follow-up, biochemical, luminescence, set 2 (AID 588598); format: functional
# Caspase-3 [27] = target: T4, Caspase-3; assay: caspase-3 inhibitors as off-family protease, SAR follow-up, selectivity assay for SENP protease inhibitor project, biochemical, luminescence, set 2 (AID 588599); format: functional
# [28] = target: T3, Sentrin-specific protease 8; assay: SENP8 protease inhibitors, SAR follow-up, biochemical, luminescence, set 2 (AID 588601); format: functional
# [29] = target: T2, Sentrin-specific protease 7; assay: SENP7 protease inhibitors, SAR follow-up, biochemical, luminescence, set 2 (AID 588600); format: functional
# Wee1-like protein kinase = Wee1-like protein kinase (Homo sapiens, UniProt P30291); assay: Navigating the Kinome. Panel member name: WEE1; format: functional
# [30] = target: Serine/threonine-protein kinase BRSK1 (Homo sapiens, UniProt Q8TDC3); format: functional;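 also: measured within a kinome-wide kinase panel, with the target listed as KIAA1811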
# [31] = target: Serine/threonine-protein kinase pim-1 (Homo sapiens, UniProt P11309); format: functional
# [32] = target: Casein kinase II subunit alpha (Homo sapiens, UniProt P68400); format: functional
# [33] = target: Serine/threonine-protein kinase pim-3 (Homo sapiens, UniProt Q86V86); format: functional;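 also: value obtained as one member of a broad kinase panel profiling effort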
smiles,measurement,setting,value
CCN(CC)CCOc1ccc(Nc2ncc3cc(-c4c(Cl)cccc4Cl)c(=O)n(C)c3n2)cc1 [PD-0166285],Ki,[1],0.0794 µM (active)
same,Ki,[2],0.0794 µM (active)
same,Ki,[3],0.0398 µM (active)
O=C(Nc1ccccc1)Nc1nccs1,Ki,[4],10 µM (active)
same,Ki,Aurora kinase A,15.8 µM (active)
same,EC50,[5],> 50 µM (active)
Cc1cccc2c1N(CCCOc1ccc(C(C)(C)C)cc1)C(=O)C2=O,IC50,Apelin receptor,> 66.6 µM (inactive)
same,IC50,[6],> 66.6 µM (inactive)
same,IC50,[7],24.3 µM (inactive)
Cc1c(C(=O)Nc2nc3ccc(Cl)cc3s2)oc2ccccc12,IC50,[8],> 99 µM (inactive)
same,IC50,[9],> 99 µM (inactive)
same,IC50,Caspase-3 [10],> 99 µM (inactive)
same,IC50,[11],> 99 µM (inactive)
O=C(c1ccc(Cl)cc1)N1CCN(c2ccc(C(F)(F)F)cn2)CC1,AC50,Candida albicans [12],130 µM (active)
same,AC50,Candida albicans [13],0.259 µM (active)
Cc1ccc(NC(=O)Nc2ccc(-c3csc4c(-c5cnn(CC(=O)N(C)C)c5)cnc(N)c34)cc2)cc1,Ki,[14],0.158 µM (active)
same,Ki,[15],> 100 µM (inactive)
NC(=O)c1ccc(N(C(N)=O)c2c(F)cccc2F)nc1-c1ccc(F)cc1F [VX-702],Ki,[16],2.51 µM (active)
same,Ki,[17],5.01 µM (active)
same,Ki,[18],2.51 µM (active)
COc1cccc(C(C)NC(=O)c2ccc(-c3ccncc3)cc2)c1 (centres undefined),Ki,[19],> 2.51 µM (inactive)
same,Ki,[20],> 2.51 µM (inactive)
same,Ki,[21],> 2.51 µM (inactive)
same,Ki,[22],> 2.51 µM (inactive)
same,Ki,[23],> 7.94 µM (inactive)
same,Ki,[24],> 2.51 µM (inactive)
same,Ki,Activin receptor type-1,> 3.98 µM (inactive)
same,Ki,[25],> 2.51 µM (inactive)
same,Ki,[3],> 2.51 µM (inactive)
O=C(N/N=C/c1c[nH]c2ccccc12)c1[nH]c2ccc(Cl)cc2c1-c1ccccc1,IC50,[26],> 99 µM (inactive)
same,IC50,Caspase-3 [27],> 99 µM (inactive)
same,IC50,[28],> 99 µM (inactive)
same,IC50,[29],> 99 µM (inactive)
Cc1cnc(Nc2ccc(N3CCN(C)CC3)cc2)nc1Nc1cccc(S(=O)(=O)NC(C)(C)C)c1,Ki,[14],0.501 µM (active)
same,Ki,Wee1-like protein kinase,0.126 µM (active)
O=C1ON=C(c2ccc(Br)cc2)C1=Cc1ccc2c(c1)OCO2,Ki,[30],10 µM (active)
same,Ki,[31],2 µM (active)
same,Ki,[32],1.58 µM (active)
same,Ki,[33],7.94 µM (active)
